# Measured values taken from patent US12589103B2, “Antimicrobial and antiviral effects of C2-C7 alkyl boronic acids” (CORNELL UNIVERSITY, priority 2019, dated 2026).
# “Also recorded” adds a separate entry of the source.
# Key:
# AIEC 541-1 and LF82 = test: Adhesion and invasion of Caco-2 cells by AIEC; type: cell-based, E. coli; details: 30 mM, m.o.i 10, 3 h
# Method: E. coli was cultured overnight in LB at 37° C. with shaking. Bacterial pellets were re-suspended in PBS before dilution in cell culture media±30 mM boronic acid or alkyl boronic acid to an m.o.i (multiplicity of infection) of 10. Caco-2 cells were infected with the diluted E. coli for 3 h at 37° C. before washing with PBS, then lysed with 1% Triton X-100. Serial dilutions of the lysates were made in PBS and plated on LB agar. The total number of colonies recovered was used to calculate the number of adherent bacteria. For invasion assays, cells were treated with gentamicin (100 μg mL−1) for one hour after initial infection and 3× wash with PBS to kill extracellular bacteria. Cells were then washed 3× after gentamicin treatment, lysed and plated as described above.
# [1] = test system: Feline Infectious Peritonitis Virus (FIPV) Black (TN-406); test: FIPV replication and syncytium formation, immunofluorescence; type: cell-based, Feline Coronavirus type I; details: 10, 20, 30, 40 mM; Feline Lung cells, 18 h post-infection
# [2] = test system: AIEC and cancer associated E. coli; test: Soft agar motility assay, E. coli; type: cell-based; details: 10 h, AIEC NC101, 541-1, cancer associated E. coli
# Method: (§1) The ability of ABA C1-3 and BA to impact the motility of E. coli and Salmonella was evaluated using sloppy agar treated with and without BA and C1-C3 alkyl boronic acids. Motility is strongly linked to the virulence phenotype of these bacterial strains. E. coli was grown overnight at 37° C. in LB broth. Soft agar plates (1% tryptone, 0.5% NaCl, 0.25% agar) were prepared the day before the assay was carried out. Sterile NaCl (control), boric or boronic acid stock solution was added into the agar right before pouring the plates. The overnight cultures of E. coli were transferred (3 μl) on to the center of each plate, followed by incubation of the plates at 37° C. for 10 h. E. coli motility was quantified by measuring the diameter of the circular swarming area formed by the growing motile bacteria.
# [3] = test system: AIEC in murine macrophage J774A.1 cells; test: Uptake and survival of AIEC in J774A.1 macrophages; type: cell-based, E. coli
# [4] = test system: typhoid toxin B subunit (CdtB); type: cell-based, Salmonella typhi
# [5] = test system: AIEC E. coli from dogs (MDR and non-MDR strains); test: Growth of MDR and non-MDR E. coli associated with Granulomatous colitis in dogs; type: cell-based; details: 40 mM, LB broth, 48 hrs
# Method: (§2) The ability of C1-C3 alkyl boronic acids and BA to impact the growth of MDR E. coli isolated from people and dogs was evaluated using a temperature controlled 96-well multiplate incubator at 37° C. over 48 hrs. Growth in media (LB broth) with and without ABA C2-6 (40 mM) was monitored by readings at OD600 with the AUC of the growth curve calculated.
# Non-MDR strains KD1, KD2, and KD3 were also evaluated.
# [6] = test system: AIEC E. coli isolated from people (MDR and non-MDR strains); test: Growth of MDR and non-MDR E. coli associated with Crohn's disease; type: cell-based; details: 40 mM, LB broth, 48 hrs
# Method: as §2
# [7] = test system: probiotic Lactobacillus spp; test: Growth of probiotic Lactobacillus strains; details: three Lactobacillus strains
# Salmonella [8] = test: Soft agar motility assay, Salmonella; type: cell-based; details: % motility of the control
# Method: as §1
# nF-κB = test: E. coli induced nF-κB activation in HEK-Blue KD-TLR5 cells (SEAP reporter); type: cell-based; details: m.o.i 20, SEAP at 24 h
# Method: HEK-Blue KD-TLR5 cells were used to detect the promotor activation of nF-κB by E. coli infection with or without boric or boronic acid treatment. nF-κB is the prototypical transcription factor for pro-inflammatory cytokines in epithelium. Briefly, cells were seeded in 96-well plates at a density of 5×10^4 cells per well. E. coli was diluted into fresh cell medium containing either NaCl (Control), boric or boronic acid at an m.o.i of 200 as 10× inocula, followed by addition of this inoculum (10 μl) into each well containing 100 μl of medium for a final m.o.i of 20. At 3 h post infection, the cell medium was carefully removed from each well, and replaced with 100 μl of fresh medium containing gentamycin (200 μg mL^−1). At 24 h post infection, the spent medium was collected, and centrifuged at 12,000 r.p.m. for 5 min to remove any particulate matter. QUANTI-Blue Kit (InvivoGen, San Diego, CA, USA) was used to detect the reporter protein SEAP (secreted alkaline phosphatase) following the manufacturer's instructions.
# [9] = test system: diarrheagenic E. coli and APEC; test: Growth of diarrheagenic and APEC E. coli in LB media; type: cell-based; details: 30 mM
# Method: (§3) The control sample contained 40 mM NaCl.
# Diarrheagenic E. coli pathogroups differ by their preferential host colonization sites, virulence mechanisms, and clinical symptoms.
# Salmonella [10] = test: Growth of five Salmonella strains; type: cell-based
# Method: as §3
# [11] = target: T1, 3CL protease of the FIP virus (Feline coronavirus, UniProt Q98VG9); details: cited from earlier work
# T1 construct: 3CL protease of the FIP virus
# FIPV = details: known drugs; cited from earlier work
# T1 sequence (Q98VG9 2904-3205): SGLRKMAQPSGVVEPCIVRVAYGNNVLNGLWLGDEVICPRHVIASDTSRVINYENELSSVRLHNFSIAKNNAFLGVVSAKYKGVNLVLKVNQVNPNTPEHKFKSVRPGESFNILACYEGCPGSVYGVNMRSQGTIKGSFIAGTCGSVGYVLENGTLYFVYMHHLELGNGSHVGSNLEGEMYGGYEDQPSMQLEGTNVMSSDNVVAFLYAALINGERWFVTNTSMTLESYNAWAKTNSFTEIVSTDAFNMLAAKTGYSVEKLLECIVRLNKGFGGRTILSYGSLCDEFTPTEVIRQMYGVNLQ
smiles,measurement,setting,value
CCCB(O)O [PBA],cytotoxicity in antiviral assay,Feline Lung cells,Cytotoxicity was not observed at antiviral doses
same,adhesion and invasion of Caco-2 by AIEC,AIEC 541-1 and LF82,suppress adhesion and invasion of Caco-2 by AIEC 541-1 and LF82
same,replication and syncytium formation of FIPV,[1],inhibited replication and syncytium formation of FIPV in infected cells
same,motility of E. coli,[2],highly effective at blocking motility of AIEC and cancer associated E. coli
same,survival of AIEC in J774A.1 macrophages,"[3]; 30 mM during infection, 24 h post infection",inhibited the survival
same,uptake of AIEC by J774A.1 macrophages,"[3]; 30 mM, 1 h",inhibited the uptake
same,typhoid toxin (CdtB) production,[4],inhibition of toxin production (CdtB)
same,degree of cytopathic effect,Caco-2 cells,EBA<BA<PBA
same,"growth inhibition of canine Granulomatous colitis associated AIEC, MDR and non-MDR",[5],"more effective than BA over a wider range of AIEC, including MDR and non-MDR strains"
same,"growth inhibition of Crohn's disease associated AIEC, MDR and non-MDR",[6],"more effective than BA over a wider range of AIEC, including MDR and non-MDR strains"
same,growth of probiotic Lactobacillus spp,[7],do not suppress growth
same,motility of Salmonella,Salmonella [8],highly effective at blocking motility of Salmonella
same,induction of nF-κB by E. coli,nF-κB,reduced the induction of nF-κB by E. coli
same,inhibition of growth of diarrheagenic and APEC E. coli,[9],have activity versus the diarrheagenic E. coli and APEC that varies by pathogroup; also recorded: more effective in inhibiting bacterial growth than BA overall
same,inhibition of growth of Salmonella serovars,Salmonella [10],inhibit the growth of multiple serovars of Salmonella more effectively than BA
CC(C)C[C@H](NC(=O)OCc1ccccc1)C(=O)N[C@@H](C[C@@H]1CCNC1=O)C(O)S(=O)(=O)[O-].[Na+] (some centres unmarked) [GC376],inhibition of FIP virus 3CL protease,[11],inhibited
same,efficacy against FIPV,FIPV,some efficacy against FIPV
